Broadly, the IC50 is the concentration at which inhibition is half-maximal.

Structures are written as SMILES.

The assay addresses T1, Papain (Carica papaya, UniProt P00784).
T1 sequence (P00784 whole entry): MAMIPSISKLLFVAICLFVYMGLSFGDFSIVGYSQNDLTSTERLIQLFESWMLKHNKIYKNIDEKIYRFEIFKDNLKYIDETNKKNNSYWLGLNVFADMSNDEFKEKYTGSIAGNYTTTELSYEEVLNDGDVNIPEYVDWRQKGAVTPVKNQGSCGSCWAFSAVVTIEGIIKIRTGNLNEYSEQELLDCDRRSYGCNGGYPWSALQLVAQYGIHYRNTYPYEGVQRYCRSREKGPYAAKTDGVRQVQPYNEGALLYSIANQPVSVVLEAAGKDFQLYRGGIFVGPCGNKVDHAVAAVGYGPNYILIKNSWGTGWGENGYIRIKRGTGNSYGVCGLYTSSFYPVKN
Kind of assay: Inhibition of papaya papain using Z-Phe-Arg-pNA substrate by spectrophotometry.
For the compound `N#CCNC(=O)[C@H](CCc1ccccc1)NC(=O)c1ccc(CN=[N+]=[N-])cc1`, the concentration for half-maximal inhibition (IC50) is 0.71 µM. `CC(C)C[C@H](NC(=O)c1ccc(CN=[N+]=[N-])cc1)C(=O)NCC#N` yielded a half-inhibitory concentration (IC50) of 2.27 µM. In the case of `N#CCNC(=O)[C@H](Cc1ccc(O)cc1)NC(=O)c1ccc(CN=[N+]=[N-])cc1`, the 50% inhibitory concentration (IC50) turned out to be 0.28 µM. Take `CCCC[C@H](NC(=O)c1ccc(CN=[N+]=[N-])cc1)C(=O)NCC#N`: the midpoint of inhibition, the IC50, lay at 7.1 µM. Take `N#CCNC(=O)[C@H](Cc1ccccc1)NC(=O)c1ccc(-c2ccc(CN=[N+]=[N-])cc2)cc1`: the IC50 was 13.9 µM.

Compound `CC(C)C[C@H](NC(=O)c1ccc(-c2ccc(CN=[N+]=[N-])cc2)cc1)C(=O)NCC#N` had a half-maximal inhibitory concentration (IC50) of 1.58 µM. Compound `N#CCNC(=O)[C@H](CCc1ccc(O)cc1)NC(=O)c1ccc(CN=[N+]=[N-])cc1` came in with a half-inhibitory concentration (IC50) of 0.98 µM. On to `CC(C)C[C@H](NC(=O)CN=[N+]=[N-])C(=O)N[C@@H](CC(C)C)C(=O)NCC#N`, for which the half-maximal inhibitory concentration (IC50) was 2.71 µM. `N#CCNC(=O)[C@H](Cc1ccccc1)NC(=O)[C@H](Cc1ccccc1)NC(=O)CN=[N+]=[N-]` registered a 50% inhibitory concentration (IC50) of 3.97 µM.

As to `N#CCNC(=O)[C@H](Cc1ccccc1)NC(=O)c1ccc(CN=[N+]=[N-])cc1`, the 50% inhibitory concentration (IC50) was 0.27 µM. This IC50 is about 15-fold lower than that of the compound before.

In the case of `CC(C)C[C@H](NC(=O)CN=[N+]=[N-])C(=O)N[C@@H](Cc1ccccc1)C(=O)NCC#N`, the IC50 amounted to 2.25 µM. `N#CCNC(=O)[C@H](Cc1ccccc1)NC(=O)c1ccc(Cn2nnc3c2CC[C@H]2[C@@H](CC3)[C@H]2COC(=O)NCCOCCOCCN)cc1`: it took 0.35 µM to reach half-maximal inhibition (IC50). The compound `N#CCNC(=O)[C@H](Cc1ccccc1)NC(=O)c1ccc(-c2ccccc2)cc1` had a 50% inhibitory concentration (IC50) of 0.22 µM.

`N#CCNC(=O)[C@H](Cc1ccccc1)NC(=O)c1ccc(Cn2nnc3c2-c2ccccc2CN(C(=O)CCCC(=O)NCCOCCOCCN)c2ccccc2-3)cc1`: the half-inhibitory concentration (IC50) is 5.98 µM. `N#CCNC(=O)[C@H](Cc1ccc(O)cc1)NC(=O)c1ccc(-c2ccc(CN=[N+]=[N-])cc2)cc1` gave an IC50 of 51.2 µM.

Regarding `N#CCNC(=O)[C@H](Cc1ccccc1)NC(=O)c1ccccc1`, the IC50 worked out at 0.36 µM.

Source of the values: ChEMBL document CHEMBL3351912, “Influence of azide incorporation on binding affinity by small papain inhibitors” (Bioorg Med Chem, 2014).
